In patent EP0908457B1, “3-(1,2-benzisothiazol- and isoxazol-5-Y1)-2,4(1H,3H)-pyrimidinedione or thione and 3-(1,2-benzisothiazol- and isoxazol-5-y1)-4(3H)-pyrimidinone or thione herbicidal agents” (BASF AKTIENGESELLSCHAFT, priority 1997, dated 1999):

Columns and labels:
[1] = test system: Monochoria vaginalis, Presl.; experiment: Preemergence weed control under flooded paddy conditions, MOOVA (Monochoria); type: in vivo; details: flooded paddy, rated three to four weeks after treatment; for herbicidal effect rating, MOOVA: meaning of each grade not given here
Sagittaria pygmaea, L. = experiment: Preemergence weed control under flooded paddy conditions, SAGPY (Arrowhead (Pygmaea)); type: in vivo; details: flooded paddy, rated three to four weeks after treatment; for herbicidal effect rating, SAGPY: meaning of each grade not given here
[2] = test system: Cyperus serotinus, Rottb.; experiment: Preemergence weed control under flooded paddy conditions, CYPSE (Flatsedge); type: in vivo; details: rated three to four weeks after treatment; for herbicidal effect rating, CYPSE: meaning of each grade not given here
[3] = test system: Oryza sativa, (L.) Tebonnet; experiment: Rice tolerance to post-transplant applications under flooded paddy conditions (Example 187), ORYSAT (Rice, Tebonnet); details: rated three to four weeks after treatment
Cyperus iria = experiment: Preemergence weed control under flooded paddy conditions, CYPIR (Rice Flatsedge); type: in vivo; details: flooded paddy, rated three to four weeks after treatment; for herbicidal effect rating, CYPIR: meaning of each grade not given here
[4] = test system: Echinochloa oryzoides (Ard.) Fritsch.; experiment: Preemergence weed control under flooded paddy conditions, ECHORC (Watergrass (Calif.)); type: in vivo; details: flooded paddy, rated three to four weeks after treatment; for herbicidal effect rating, ECHORC: meaning of each grade not given here
[5] = Rate 0.5000 kg/ha, preemergence
[6] = Rate 0.0320 kg/ha, preemergence
[7] = Rate 0.0620 kg/ha, preemergence
[8] = Rate 0.1250 kg/ha, preemergence
[9] = Rate 0.2500 kg/ha, preemergence
[10] = 0.0315 kg/ha, preemergence weeds
[11] = 0.0630 kg/ha, preemergence weeds
[12] = Rate 0.0320 kg/ha, preemergence weeds
[13] = Rate 0.0620 kg/ha, preemergence weeds
[14] = Rate 0.1250 kg/ha, preemergence weeds
[15] = Rate 0.2500 kg/ha, preemergence weeds

SMILES: COC(=O)CS(=O)(=O)Cc1nsc2ccc(-n3c(=O)cc(C(F)(F)F)n(C)c3=O)cc12 [Example 272, Acetic acid, {{{5-[3,6-dihydro-3-methyl-2,6-dioxo-4-(trifluoromethyl)-1(2H)-pyrimidinyl]-1,2-benzisothiazol-3-yl}methyl}sulfonyl}-, methyl ester]
- MOOVA herbicidal effect rating [1, 5]: 0.0
- SAGPY herbicidal effect rating (Sagittaria pygmaea, L.; [5]): 0.0
- CYPSE herbicidal effect rating [2, 5]: 0.0
- ORYSAT herbicidal effect rating ([3]; Rate 0.5000 kg/ha): 0.0
- CYPIR herbicidal effect rating (Cyperus iria; [5]): 0.0
- ECHORC herbicidal effect rating [4, 5]: 0.0

SMILES: Cc1ccc(OCC#N)c(-c2nsc3ccc(-n4c(=O)cc(C(F)(F)F)n(C)c4=O)cc23)c1 [Example 57, 3-{3-[6-(Cyanomethoxy)-m-tolyl]-1,2-benzisothiazol-5-yl}-1-methyl-6-(trifluoromethyl)-2,4(1H,3H)-pyrimidinedione]
- herbicidal effect rating, MOOVA ([1]; 0.0313 kg/ha, preemergence): 9.0
- herbicidal effect rating, MOOVA ([1]; 0.0625 kg/ha, preemergence): 9.0
- herbicidal effect rating, MOOVA ([1]; 0.1250 kg/ha, preemergence): 9.0
- herbicidal effect rating, MOOVA ([1]; 0.2500 kg/ha, preemergence): 9.0
- herbicidal effect rating, SAGPY (Sagittaria pygmaea, L.; 0.0313 kg/ha, preemergence): 0.0
- herbicidal effect rating, SAGPY (Sagittaria pygmaea, L.; 0.0625 kg/ha, preemergence): 0.0
- herbicidal effect rating, SAGPY (Sagittaria pygmaea, L.; 0.1250 kg/ha, preemergence): 0.0
- herbicidal effect rating, SAGPY (Sagittaria pygmaea, L.; 0.2500 kg/ha, preemergence): 0.0
- herbicidal effect rating, CYPSE ([2]; 0.0313 kg/ha, preemergence): 0.0
- herbicidal effect rating, CYPSE ([2]; 0.0625 kg/ha, preemergence): 0.0
- herbicidal effect rating, CYPSE ([2]; 0.1250 kg/ha, preemergence): 0.0
- herbicidal effect rating, CYPSE ([2]; 0.2500 kg/ha, preemergence): 0.0
- herbicidal effect rating, ORYSAT (rice tolerance) ([3]; 0.0313 kg/ha): 3.0
- herbicidal effect rating, ORYSAT (rice tolerance) ([3]; 0.0625 kg/ha): 4.0
- herbicidal effect rating, ORYSAT (rice tolerance) ([3]; 0.1250 kg/ha): 5.0
- herbicidal effect rating, ORYSAT (rice tolerance) ([3]; 0.2500 kg/ha): 6.0
- herbicidal effect rating, CYPIR (Cyperus iria; 0.0313 kg/ha, preemergence): 9.0
- herbicidal effect rating, CYPIR (Cyperus iria; 0.0625 kg/ha, preemergence): 9.0
- herbicidal effect rating, CYPIR (Cyperus iria; 0.1250 kg/ha, preemergence): 9.0
- herbicidal effect rating, CYPIR (Cyperus iria; 0.2500 kg/ha, preemergence): 9.0
- herbicidal effect rating, ECHORC ([4]; 0.0313 kg/ha, preemergence): 9.0
- herbicidal effect rating, ECHORC ([4]; 0.0625 kg/ha, preemergence): 9.0
- herbicidal effect rating, ECHORC ([4]; 0.1250 kg/ha, preemergence): 9.0
- herbicidal effect rating, ECHORC ([4]; 0.2500 kg/ha, preemergence): 9.0

SMILES: CCc1ccc(OC)c(-c2nsc3ccc(-n4c(=O)cc(C(F)(F)F)n(C)c4=O)cc23)c1 [Example 45, 3-[3-(5-Ethyl-2-methoxyphenyl)-1,2-benzisothiazol-5-yl]-1-methyl-6-(trifluoromethyl)-2,4(1H,3H)-pyrimidinedione]
- herbicidal effect rating, MOOVA ([1]; 0.0313 kg/ha, preemergence): 9.0
- herbicidal effect rating, MOOVA ([1]; 0.0625 kg/ha, preemergence): 9.0
- herbicidal effect rating, MOOVA ([1]; 0.1250 kg/ha, preemergence): 9.0
- herbicidal effect rating, MOOVA ([1]; 0.2500 kg/ha, preemergence): 9.0
- herbicidal effect rating, SAGPY (Sagittaria pygmaea, L.; 0.0313 kg/ha, preemergence): 0.0
- herbicidal effect rating, SAGPY (Sagittaria pygmaea, L.; 0.0625 kg/ha, preemergence): 0.0
- herbicidal effect rating, SAGPY (Sagittaria pygmaea, L.; 0.1250 kg/ha, preemergence): 4.0
- herbicidal effect rating, SAGPY (Sagittaria pygmaea, L.; 0.2500 kg/ha, preemergence): 6.0
- herbicidal effect rating, CYPSE ([2]; 0.0625 kg/ha, preemergence): 2.0
- herbicidal effect rating, CYPSE ([2]; 0.1250 kg/ha, preemergence): 9.0
- herbicidal effect rating, CYPSE ([2]; 0.2500 kg/ha, preemergence): 9.0
- herbicidal effect rating, ORYSAT (rice tolerance) ([3]; 0.0313 kg/ha): 2.0
- herbicidal effect rating, ORYSAT (rice tolerance) ([3]; 0.0625 kg/ha): 2.0
- herbicidal effect rating, ORYSAT (rice tolerance) ([3]; 0.1250 kg/ha): 3.0
- herbicidal effect rating, ORYSAT (rice tolerance) ([3]; 0.2500 kg/ha): 3.0
- herbicidal effect rating, CYPIR (Cyperus iria; 0.0313 kg/ha, preemergence): 6.0
- herbicidal effect rating, CYPIR (Cyperus iria; 0.0625 kg/ha, preemergence): 9.0
- herbicidal effect rating, CYPIR (Cyperus iria; 0.1250 kg/ha, preemergence): 9.0
- herbicidal effect rating, CYPIR (Cyperus iria; 0.2500 kg/ha, preemergence): 9.0
- herbicidal effect rating, ECHORC ([4]; 0.0313 kg/ha, preemergence): 9.0
- herbicidal effect rating, ECHORC ([4]; 0.0625 kg/ha, preemergence): 9.0
- herbicidal effect rating, ECHORC ([4]; 0.1250 kg/ha, preemergence): 9.0
- herbicidal effect rating, ECHORC ([4]; 0.2500 kg/ha, preemergence): 9.0

SMILES: Cn1c(C(F)(F)F)cc(=O)n(-c2ccc3snc(C(C)(C)C#N)c3c2)c1=O [Example 256, 1,2-Benzisothiazole-3-acetonitrile, 5-[3,6-dihydro-3-methyl-2,6-dioxo-4-(trifluoromethyl)-1(2H)-pyrimidinyl)-alpha,alpha-dimethyl-]
- MOOVA herbicidal effect rating [1, 6]: 8.0
- MOOVA herbicidal effect rating [1, 7]: 9.0
- MOOVA herbicidal effect rating [1, 8]: 9.0
- MOOVA herbicidal effect rating [1, 9]: 9.0
- SAGPY herbicidal effect rating (Sagittaria pygmaea, L.; [6]): 0.0
- SAGPY herbicidal effect rating (Sagittaria pygmaea, L.; [7]): 0.0
- SAGPY herbicidal effect rating (Sagittaria pygmaea, L.; [8]): 4.0
- SAGPY herbicidal effect rating (Sagittaria pygmaea, L.; [9]): 8.0
- CYPSE herbicidal effect rating [2, 6]: 0.0
- CYPSE herbicidal effect rating [2, 7]: 2.0
- CYPSE herbicidal effect rating [2, 8]: 6.0
- CYPSE herbicidal effect rating [2, 9]: 9.0
- ORYSAT herbicidal effect rating ([3]; Rate 0.0320 kg/ha): 6.0
- ORYSAT herbicidal effect rating ([3]; Rate 0.0620 kg/ha): 8.0
- ORYSAT herbicidal effect rating ([3]; Rate 0.1250 kg/ha): 8.0
- ORYSAT herbicidal effect rating ([3]; Rate 0.2500 kg/ha): 9.0
- CYPIR herbicidal effect rating (Cyperus iria; [6]): 8.0
- CYPIR herbicidal effect rating (Cyperus iria; [7]): 9.0
- CYPIR herbicidal effect rating (Cyperus iria; [8]): 9.0
- CYPIR herbicidal effect rating (Cyperus iria; [9]): 9.0
- ECHORC herbicidal effect rating [4, 6]: 1.0
- ECHORC herbicidal effect rating [4, 7]: 3.0
- ECHORC herbicidal effect rating [4, 8]: 7.0
- ECHORC herbicidal effect rating [4, 9]: 9.0

SMILES: CC(C)c1nsc2ccc(-n3c(=O)cc(C(F)(F)F)n(C)c3=O)cc12 [Example 499, 2,4(1H,3H)-Pyrimidinedione, 3-(3-isopropyl-1,2-benzisothiazol-5-yl)-1-methyl-6-(trifluoromethyl)-]
- MOOVA herbicidal rating ([1]; 0.0320 kg/ha, preemergence): 8.0
- MOOVA herbicidal rating ([1]; 0.0620 kg/ha, preemergence): 9.0
- MOOVA herbicidal rating ([1]; 0.1250 kg/ha, preemergence): 9.0
- MOOVA herbicidal rating ([1]; 0.2500 kg/ha, preemergence): 9.0
- SAGPY herbicidal rating (Sagittaria pygmaea, L.; 0.0320 kg/ha, preemergence): 8.0
- SAGPY herbicidal rating (Sagittaria pygmaea, L.; 0.0620 kg/ha, preemergence): 9.0
- SAGPY herbicidal rating (Sagittaria pygmaea, L.; 0.1250 kg/ha, preemergence): 9.0
- SAGPY herbicidal rating (Sagittaria pygmaea, L.; 0.2500 kg/ha, preemergence): 9.0
- CYPSE herbicidal rating ([2]; 0.0320 kg/ha, preemergence): 9.0
- CYPSE herbicidal rating ([2]; 0.0620 kg/ha, preemergence): 9.0
- CYPSE herbicidal rating ([2]; 0.1250 kg/ha, preemergence): 9.0
- CYPSE herbicidal rating ([2]; 0.2500 kg/ha, preemergence): 9.0
- ORYSAT herbicidal rating (rice tolerance) ([3]; 0.0320 kg/ha): 6.5
- ORYSAT herbicidal rating (rice tolerance) ([3]; 0.0620 kg/ha): 8.0
- ORYSAT herbicidal rating (rice tolerance) ([3]; 0.1250 kg/ha): 7.5
- ORYSAT herbicidal rating (rice tolerance) ([3]; 0.2500 kg/ha): 9.0
- CYPIR herbicidal rating (Cyperus iria; 0.0320 kg/ha, preemergence): 8.0
- CYPIR herbicidal rating (Cyperus iria; 0.0620 kg/ha, preemergence): 9.0
- CYPIR herbicidal rating (Cyperus iria; 0.1250 kg/ha, preemergence): 9.0
- CYPIR herbicidal rating (Cyperus iria; 0.2500 kg/ha, preemergence): 9.0
- ECHORC herbicidal rating ([4]; 0.0320 kg/ha, preemergence): 7.5
- ECHORC herbicidal rating ([4]; 0.0620 kg/ha, preemergence): 9.0
- ECHORC herbicidal rating ([4]; 0.1250 kg/ha, preemergence): 9.0
- ECHORC herbicidal rating ([4]; 0.2500 kg/ha, preemergence): 9.0

SMILES: Cc1ccc(OCC(=O)OC2C=CCCC2)c(-c2nsc3ccc(-n4c(=O)cc(C(F)(F)F)n(C)c4=O)cc23)c1 (centres unmarked) [Example 185, 2-Cyclohexen-1-yl {{2-{5-[3,6-dihydro-3-methyl-2,6-dioxo-4-(trifluoromethyl)-1(2H)-pyrimidinyl]-1,2-benzisothiazol-3-yl}-p-tolyl}oxy}acetate]
- herbicidal effect rating, MOOVA [1, 10]: 9.0
- herbicidal effect rating, MOOVA [1, 11]: 9.0
- herbicidal effect rating, SAGPY (Sagittaria pygmaea, L.; [10]): 0.0
- herbicidal effect rating, SAGPY (Sagittaria pygmaea, L.; [11]): 0.0
- herbicidal effect rating, CYPSE [2, 10]: 0.0
- herbicidal effect rating, CYPSE [2, 11]: 0.0
- herbicidal effect rating, ORYSAT (rice tolerance) ([3]; 0.0315 kg/ha): 0.0
- herbicidal effect rating, ORYSAT (rice tolerance) ([3]; 0.0630 kg/ha): 0.0
- herbicidal effect rating, CYPIR (Cyperus iria; [10]): 0.0
- herbicidal effect rating, CYPIR (Cyperus iria; [11]): 0.0
- herbicidal effect rating, ECHORC [4, 10]: 0.0
- herbicidal effect rating, ECHORC [4, 11]: 0.0

SMILES: Cn1c(C(F)(F)F)cc(=O)n(-c2ccc3snc(C(=O)Nc4cc(C(C)(C)C)on4)c3c2)c1=O [Example 331, 1,2-Benzisothiazole-3-carboxamide, N-(5-tert-butylisoxazol-3-yl)-5-[3,6-dihydro-3-methyl-2,6-dioxo-4-(trifluoromethyl)-1(2H)-pyrimidinyl]-]
- herbicidal effect rating, MOOVA [1, 12]: 9.0
- herbicidal effect rating, MOOVA [1, 13]: 9.0
- herbicidal effect rating, MOOVA [1, 14]: 9.0
- herbicidal effect rating, MOOVA [1, 15]: 9.0
- herbicidal effect rating, SAGPY (Sagittaria pygmaea, L.; [12]): 0.0
- herbicidal effect rating, SAGPY (Sagittaria pygmaea, L.; [13]): 0.0
- herbicidal effect rating, SAGPY (Sagittaria pygmaea, L.; [14]): 0.0
- herbicidal effect rating, SAGPY (Sagittaria pygmaea, L.; [15]): 0.0
- herbicidal effect rating, CYPSE [2, 12]: 0.0
- herbicidal effect rating, CYPSE [2, 13]: 0.0
- herbicidal effect rating, CYPSE [2, 14]: 0.0
- herbicidal effect rating, CYPSE [2, 15]: 0.0
- herbicidal effect rating ORYSAT ([3]; Rate 0.0320 kg/ha): 0.0
- herbicidal effect rating ORYSAT ([3]; Rate 0.0620 kg/ha): 0.0
- herbicidal effect rating ORYSAT ([3]; Rate 0.1250 kg/ha): 0.0
- herbicidal effect rating ORYSAT ([3]; Rate 0.2500 kg/ha): 1.0
- herbicidal effect rating, CYPIR (Cyperus iria; [12]): 0.0
- herbicidal effect rating, CYPIR (Cyperus iria; [13]): 0.0
- herbicidal effect rating, CYPIR (Cyperus iria; [14]): 5.0
- herbicidal effect rating, CYPIR (Cyperus iria; [15]): 9.0
- herbicidal effect rating, ECHORC [4, 12]: 0.0
- herbicidal effect rating, ECHORC [4, 13]: 2.0
- herbicidal effect rating, ECHORC [4, 14]: 4.0
- herbicidal effect rating, ECHORC [4, 15]: 8.0
